# Measured values: patent EP4722365A1, “DOUBLE-STRANDED NUCLEOTIDE COMPOUND FOR METABOLIC DISEASES AND USE THEREOF” (Visirna Therapeutics (Suzhou) Co., Ltd., priority 2023, dated 2024)
# Test system: hDGAT2
# Test: Mouse model receiving hydrodynamic injection of DGAT2 plasmid via tail vein (Example 5, liver mRNA qPCR)
# Assay type: in vivo
# Conditions: 3mpk subcutaneously day 0, HDI day 14, BALB/c mice
# Method: BALB/c mice, female, 6-7 weeks old.
# pcDNA-DGAT2 plasmid, having a concentration of 2 µg/µL, diluted with physiological saline for later use.
# The hydrodynamic injection scheme of DGAT2 plasmid DNA via tail vein, the administration and the sample collection method were as follows.
# Treatment with compound: The day of administration to mice was defined as day 0, the day before it was day -1, the day after it was day 1, and so on. On day 0, the mice were injected subcutaneously with 5 mL/kg of the solvent or the test compound, at a dosage of 3mpk.
# Hydrodynamic injection of DGAT2 plasmid DNA solution into mice via tail vein: On day 4 or 14, the plasmid DNA was prepared with normal saline before injection, and stored at 4°C until use. All mice were injected with the plasmid DNA solution in a volume of 8% of the body weight (injection volume (mL)= body weight of mice (g) x 8%) in 5 seconds via the tail vein, and the weight of plasmid injected into each mouse was 10 µg.
# Endpoint of the experiment and collection of liver samples: On day 5 or 15, that is, 24 hrs after the hydrodynamic injection of DGAT2 plasmid via the tail vein, all mice were euthanized by CO2 inhalation. After euthanasia, blood samples were collected from the heart and liver samples were collected. 2 liver tissues of about 70 mg were immersed in RNAlater®, and incubated overnight at 4 °C. The supernatant was discarded and the remainder was transferred to a freezer at -80°C, for mRNA detection later.
# RNA in the liver was extracted with Trizol. The method was briefly described as follows: 50-70 mg of liver tissue and 1.2 mL of Trizol were homogenized with Qiagen Tissue Lyser II at 26 Hz for 2 min and lyzed at room temperature for 5 min. 1 mL of the supernatant was taken, added to 200 uL of chloroform, vigorously shaken for 15 s, allowed to stand for 3 min, and centrifuged. The supernatant was collected, added with an equal volume of isopropanol, and stood overnight at -20°C for precipitation. The precipitate was washed twice with 70% , and dissolved in water without RNase. The concentration of the RNA sample was determined by Nanodrop ONE and diluted to 400 ng/uL with water without RNase for reverse transcription.
# The experimental steps of reverse transcription could be made reference to the instruction of FastKing cDNA first strand synthesis kit (genome clean). Briefly, a gDNA removal mixture was prepared according to Table 6. The mixture (5 µL/sample) and 400 ng/µL RNA sample were added to a 96-well PCR reaction plate, incubated at 42°C for 3 min, and cooled on ice. A mixture for reverse transcription was prepared according to Table 7. The reverse transcription mixture (10 µL/sample) and the DNA removal product of the previous step were added to a 96-well PCR reaction plate, for reverse transcription. Reaction conditions: 42°C for 15 min; and 95°C for 3 min. The cDNA was stored at 4°C for further analysis. Table 6. Ingredients for gDNA-removal reaction
# Reaction conditions: 95°C for 10 min; and 40 cycles of 95°C for 15 s, and 60°C for 1 min. Table 8. Ingredients for qPCR Reaction (DGAT2)
# The expression of the target gene in each sample was analyzed by relative quantification using ΔΔCt method. In this method, the Ct difference (ΔCt) between the target gene (DGAT2) and the internal reference gene (Neo) was determined, and the ΔCt value of the sample treated with the compound was compared with that of the control group.
# The formula is: ΔCt = average Ct value of target gene−average Ct value of reference gene. [formula] [formula]
# Data analysis: The data are expressed as the average of each group of mouse samples ± standard error. Unless otherwise specified, n=4 or 5. Student's t test was used for statistical analysis. Table 10.1 Test for evaluating the in-vivo inhibitory activity of siRNA compounds on target gene DGAT2 in mice model receiving hDGAT2 HDI 5 days after administration
substance,measurement,value
dS319: sense (invAb)*acaccauaGfAfCfuauuugcuua[L96]; anti-sense Vpu*Af*a*GfcAfaauagUfcUfaUfgGfuGf* u,"Average inhibition rate, % Day 1 after HDI (day 15 after administration)",91.79%
